System: 276233-004-R-J1-PDC KRAS spheroids with HUVEC/MSC, viability
Assay: Anticancer human tumor 276233-004-R-J1-PDC patient-derived colon adenocarcinoma cell line growth inhibition [KRAS2]
Details: for viability, T/C: stronger effect = lower value; active = viability on the fitted dose curve at most 10% of control; inactive = the rest
Excerpt: Multicellular complex tumor spheroid response to RAS pathway inhibitors in combination with a targeted agents in patient-derived cell lines with oncogenic KRAS variants from multiple cancer types
A high-throughput screen of multi-cell type tumor spheroids was designed to identify active combinations of targeted small molecules and KRAS pathway inhibitors. Complex spheroids include a stromal component modeled by human endothelial cells (HUVEC) and fibroblasts modeled by human mesenchymal stem cells (MSCs). The concentration ranges selected for each drug and investigational agent were based upon clinically achievable concentrations if the clinical Cmax of the agent was known.
Compounds. The drugs and investigational agents: BI-3406 (NSC825286), BAY-293 (NSC824723), batoprotafib (TNO155; NSC825523), sotorasib (AMG 510; NSC818433), MRTX1257 (NSC819558), elimusertib (BAY 1895344; NSC800525), molibresib (GSK525762; NSC774829), temuterkib (LY3214996; NSC803410), venetoclax (NSC766270), alisertib (NSC759677), olaparib (NSC753686), talazoparib (NSC767125), erdafitinib (NSC781556), ipatasertib (NSC767898), cabozantinib (NSC761068), nintedanib (NSC756659), abemaciclib (NSC768073), docetaxel (NSC628503), trametinib (NSC758246), and sapanisertib (NSC764658) were obtained from the National Cancer Institute (NCI) Developmental Therapeutics Program Chemical Repository. The FDA-approved anticancer drug set is available from the Developmental Therapeutics Program. […] The stock solutions were prepared in dimethyl sulfoxide (DMSO, Sigma-Aldrich, St. Louis, MO, cat. D2650) at 800-fold the tested concentration and stored at -70 degrees C prior to their use. All drugs and investigational agents were tested over a range starting from a high concentration at or near the clinical Cmax and decreasing in half-log increments. If the clinical Cmax for an agent had not been determined, the highest concentration tested was 10 microM.
Cell Culture. All cells were maintained in an incubator at 37 degrees C and 5% CO2 with 95% humidity. The PDC lines were cultured according to standard operating procedures established by the NCI PDMR (https://pdmr.cancer.gov/sops/default.htm). Briefly, all PDCs were thawed and cultured in Matrigel-coated flasks prepared with a working solution of 1X Ham's F-12 nutrient mix, without supplementation (Invitrogen, Waltham, MA, cat. 11765054), 100 U/mL penicillin-streptomycin (Invitrogen, cat. 15140122), and 2.5% Matrigel (Corning Inc., Corning, NY, cat. 354248) for the first three passages. All PDCs were cultured in complete DMEM/F-12 media containing advanced DMEM/F-12 (Invitrogen, cat. 12634028), 4.9% defined fetal bovine serum, heat inactivated (HyClone Laboratories Inc., Logan, UT, cat. SH30070.03HI), 389 ng/mL hydrocortisone (Sigma-Aldrich, cat. H4001), 9.7 ng/mL human EGF recombinant protein (Invitrogen, cat. PHG0313), 23.4 microg/mL adenine (Sigma-Aldrich, cat. A2786), 97.3 U/mL penicillin-streptomycin (Invitrogen, cat. 15140122), 1.9 mM L-glutamine (Invitrogen, cat. 25030081), and 9.7 microM Y-27632 dihydrochloride (Tocris Bioscience, Bristol, United Kingdom, cat. 1254). The PDCs were cultured in complete DMEM/F12 media without 9.7 microM Y-27632 dihydrochloride for at least two passages prior to the screen. The established cell line HOP-62 was cultured in RPMI 1640 medium, HEPES (Invitrogen, cat. 22400105) with 10% defined fetal bovine serum (HyClone Laboratories Inc., cat. SH30070.03) and 2 mM L-glutamine (Invitrogen, cat. 25030081). The pooled donor HUVEC were cultured in endothelial cell growth medium 2 (PromoCell, Heidelberg, Germany, cat. C-22011) and the hMSC were cultured in mesenchymal stem cell growth medium 2 (PromoCell, cat. C-28009). For all experiments, HUVEC and hMSC were used at passages </=5, while the malignant cell lines were used at passages </=15. […]

[1] = curve of first compound, second compound 0.1 µM
[2] = curve of first compound, second compound 0.316 µM
[3] = curve of first compound, second compound 1 µM
[4] = curve of first compound, second compound 3.16 µM
[5] = curve of first compound, second compound 10 µM
[6] = second compound 0.1 µM, first compound 0.0316 µM
[7] = second compound 0.1 µM, first compound 0.1 µM
[8] = second compound 0.1 µM, first compound 0.316 µM
[9] = second compound 0.1 µM, first compound 1 µM
[10] = second compound 0.1 µM, first compound 3.16 µM
[11] = second compound 0.1 µM, first compound 10 µM
[12] = second compound 0.316 µM, first compound 0.0316 µM
[13] = second compound 0.316 µM, first compound 0.1 µM
[14] = second compound 0.316 µM, first compound 0.316 µM
[15] = second compound 0.316 µM, first compound 1 µM
[16] = second compound 0.316 µM, first compound 3.16 µM
[17] = second compound 0.316 µM, first compound 10 µM
[18] = second compound 1 µM, first compound 0.0316 µM
[19] = second compound 1 µM, first compound 0.1 µM
[20] = second compound 1 µM, first compound 0.316 µM
[21] = second compound 1 µM, first compound 1 µM
[22] = second compound 1 µM, first compound 3.16 µM
[23] = second compound 1 µM, first compound 10 µM
[24] = second compound 3.16 µM, first compound 0.0316 µM
[25] = second compound 3.16 µM, first compound 0.1 µM
[26] = second compound 3.16 µM, first compound 0.316 µM
[27] = second compound 3.16 µM, first compound 1 µM
[28] = second compound 3.16 µM, first compound 3.16 µM
[29] = second compound 3.16 µM, first compound 10 µM
[30] = second compound 10 µM, first compound 0.0316 µM
[31] = second compound 10 µM, first compound 0.1 µM
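Also: cells exposed to agents for seven days before viability read.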
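For viability, T/C in this document: 100% = DMSO vehicle control wells and lower values mean fewer viable cells.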

Cn1nccc1Nc1nccc(-c2cc3c(s2)C(C)(C)N(CCN2CCOCC2)C3=O)n1 + CNCc1ccccc1-c1csc(C(C)Nc2nc(C)nc3cc(OC)c(OC)cc23)c1
inactive: viability, T/C [6] 107% | viability, T/C [7] 91.7% | viability, T/C [8] 80.2% | viability, T/C [9] 81.6% | viability, T/C [10] 49.3% | viability, T/C [11] 49.4% | viability, T/C [12] 115% | viability, T/C [13] 89.9% | viability, T/C [14] 94.2% | viability, T/C [15] 79.3% | viability, T/C [16] 50.1% | viability, T/C [17] 60.2% | viability, T/C [18] 86% | viability, T/C [19] 83.1% | viability, T/C [20] 68% | viability, T/C [21] 52.4% | viability, T/C [22] 27.3%
7270 nM: IC50 [1]
active: viability, T/C [23] 6.69% | viability, T/C [24] 3.02% | viability, T/C [25] 2.17% | viability, T/C [26] 2.97% | viability, T/C [27] 3.66% | viability, T/C [28] 1.05% | viability, T/C [29] 0.59% | viability, T/C [30] 2.67% | viability, T/C [31] 2.95% | viability, T/C (second compound 10 µM, first compound 0.316 µM) 1.94% | viability, T/C (second compound 10 µM, first compound 1 µM) 1.75% | viability, T/C (second compound 10 µM, first compound 3.16 µM) 1.4% | viability, T/C (second compound 10 µM, first compound 10 µM) 0.24%
> 10000 nM: IC50 [2]
1060 nM: IC50 [3]
< 31.6 nM: IC50 [4] | IC50 [5]

CC1OCC2(CCN(c3cnc(Sc4ccnc(N)c4Cl)c(N)n3)CC2)C1N (stereo not given) + C=CC(=O)N1CCN(c2nc(OCC3CCCN3C)nc3c2CCN(c2cccc4cccc(C)c24)C3)CC1CC#N
> 10000 nM: IC50 (curve of first compound, second compound 0.0316 µM) | IC50 [1] | IC50 [2]
inactive: viability, T/C (second compound 0.0316 µM, first compound 0.0316 µM) 105% | viability, T/C (second compound 0.0316 µM, first compound 0.1 µM) 90.5% | viability, T/C (second compound 0.0316 µM, first compound 0.316 µM) 91.2% | viability, T/C (second compound 0.0316 µM, first compound 1 µM) 85.7% | viability, T/C (second compound 0.0316 µM, first compound 3.16 µM) 70.2% | viability, T/C (second compound 0.0316 µM, first compound 10 µM) 59.8% | viability, T/C [6] 98.2% | viability, T/C [7] 85% | viability, T/C [8] 81.5% | viability, T/C [9] 69.3% | viability, T/C [10] 68.7% | viability, T/C [11] 56.3% | viability, T/C [12] 102% | viability, T/C [13] 98.7% | viability, T/C [14] 83.4% | viability, T/C [15] 76.7% | viability, T/C [16] 67% | viability, T/C [17] 55.3% | viability, T/C [18] 98.2% | viability, T/C [19] 84.7% | viability, T/C [20] 81.2% | viability, T/C [21] 83.5% | viability, T/C [22] 63.5% | viability, T/C [23] 49% | viability, T/C [24] 69.1% | viability, T/C [25] 60.4% | viability, T/C [26] 58.2% | viability, T/C [27] 39.7% | viability, T/C [28] 35.9% | viability, T/C [29] 39%
521 nM: IC50 [4]
9490 nM: IC50 [3]

CC(=O)OC12COC1CC(O)C1(C)C(=O)C(O)C3=C(C)C(OC(=O)C(O)C(NC(=O)OC(C)(C)C)c4ccccc4)CC(O)(C(OC(=O)c4ccccc4)C21)C3(C)C (stereo not given)
inactive: viability, T/C (compound 0.01 µM) 90.3% [middle of 5 runs] | viability, T/C (compound 0.316 µM) 88.6% [middle of 5 runs] | viability, T/C (compound 1 µM) 94.5% [middle of 5 runs] | viability, T/C (compound 3.16 µM) 92.1% [middle of 5 runs]
> 3160 nM: IC50 (curve of compound)

CN(C)C/C=C/C(=O)Nc1cc2c(Nc3ccc(F)c(Cl)c3)ncnc2cc1O[C@H]1CCOC1 + CNCc1ccccc1-c1csc(C(C)Nc2nc(C)nc3cc(OC)c(OC)cc23)c1
active: viability, T/C (second compound 3.16 µM, first compound 0.000316 µM) 4.26% | viability, T/C (second compound 3.16 µM, first compound 0.001 µM) 2.41% | viability, T/C (second compound 3.16 µM, first compound 0.00316 µM) 3.56% | viability, T/C (second compound 3.16 µM, first compound 0.01 µM) 3.46% | viability, T/C [24] 8.28% | viability, T/C [25] 1.18% | viability, T/C (second compound 10 µM, first compound 0.000316 µM) 5.68% | viability, T/C (second compound 10 µM, first compound 0.001 µM) 0.19% | viability, T/C (second compound 10 µM, first compound 0.00316 µM) 0.31% | viability, T/C (second compound 10 µM, first compound 0.01 µM) 0.19% | viability, T/C [30] 0.88% | viability, T/C [31] 0.67%
> 100 nM: IC50 [1] | IC50 [2] | IC50 [3]
inactive: viability, T/C (second compound 0.1 µM, first compound 0.000316 µM) 95.8% | viability, T/C (second compound 0.1 µM, first compound 0.001 µM) 106% | viability, T/C (second compound 0.1 µM, first compound 0.00316 µM) 89% | viability, T/C (second compound 0.1 µM, first compound 0.01 µM) 95.2% | viability, T/C [6] 86.8% | viability, T/C [7] 74.7% | viability, T/C (second compound 0.316 µM, first compound 0.000316 µM) 95.9% | viability, T/C (second compound 0.316 µM, first compound 0.001 µM) 82.5% | viability, T/C (second compound 0.316 µM, first compound 0.00316 µM) 83.1% | viability, T/C (second compound 0.316 µM, first compound 0.01 µM) 73% | viability, T/C [12] 67.9% | viability, T/C [13] 69.8% | viability, T/C (second compound 1 µM, first compound 0.000316 µM) 81.4% | viability, T/C (second compound 1 µM, first compound 0.001 µM) 73.5% | viability, T/C (second compound 1 µM, first compound 0.00316 µM) 77.3% | viability, T/C (second compound 1 µM, first compound 0.01 µM) 81.2% | viability, T/C [18] 63% | viability, T/C [19] 79.2%
< 0.316 nM: IC50 [4] | IC50 [5]

CCN1CCN(Cc2ccc(Nc3ncc(F)c(-c4cc(F)c5nc(C)n(C(C)C)c5c4)n3)nc2)CC1
inactive: viability, T/C (compound 0.01 µM) 92.1% [middle of 5 runs] | viability, T/C (compound 0.1 µM) 82.8% [middle of 5 runs] | viability, T/C (compound 0.316 µM) 95.5% [middle of 5 runs] | viability, T/C (compound 1 µM) 106% [middle of 5 runs]
> 1000 nM: IC50 (curve of compound)

Source: PubChem BioAssay AID1963873 (Molecular Pharmacology Branch, DTP, NCI, 2024)
